Paper PMC8001104, “Repurposing of Some Natural Product Isolates as SARS-COV-2 Main Protease Inhibitors via In Vitro Cell Free and Cell-Based Antiviral Assessments and Molecular Modeling Approaches” (Pharmaceuticals, 2021)
Converted amounts (≈) assume the structure as drawn. Read-outs that look alike come from different tables or passages of the source.

How the values were obtained:
SARS-CoV-2 3CL Protease = SARS-CoV-2 3CL Protease (Severe acute respiratory syndrome coronavirus 2, UniProt P0DTD1); test: biochemical; conditions: for % inhibition: 100 µM
Cytotoxicity assay (MTT) = format: cell-based; conditions: African green monkey, VERO-E6 cells
Experimental: The cytotoxic activity of the tested compounds was tested in VERO-E6 cells by using the 3-(4, 5-dimethylthiazol-2-yl)-2, 5-diphenyltetrazolium bromide (MTT) method with minor modifications. Briefly, the cells were seeded in 96 well-plates (100 µL/well at a density of 3 × 10^5 cells/mL) and incubated for 24 h at 37 °C in 5% CO2. After 24 h, cells were treated with various concentrations of the tested compounds in triplicates. 24 h later, the supernatant was discarded, and cell monolayers were washed with sterile 1× phosphate buffer saline (PBS) 3 times and MTT solution (20 µL of 5 mg/mL stock solution) was added to each well and incubated at 37 °C for 4 h followed by medium aspiration. In each well, the formed formazan crystals were dissolved with 200 µL of acidified isopropanol (0.04 M HCl in absolute isopropanol = 0.073 mL HCL in 50 mL isopropanol). Absorbance of formazan solutions was measured at λ max 540 nm with 620 nm as a reference wavelength using a multi-well plate reader. The percentage of cytotoxicity compared to the untreated cells was determined with the following equation.

[1] = system: SARS-CoV-2 (hCoV-19/Egypt/NRC-03/2020); test: Antiviral IC50 determination, reduction of virus-induced cytopathic effect in Vero-E6 cells (crystal violet); format: cell-based
[2] = set-up: method as in PMID 31468636; conditions: dose of 600 mg, healthy volunteers, cited from earlier work
[3] = 100 µM concentration, FRET assay, read-out: % inhibition
[4] = SARS COV-2 viral main protease, FRET assay, read-out: IC50
[5] = 100 µM concentration, FRET assay

| Compound | inhibition at 100 µM (SARS-CoV-2 3CL Protease; [3]) [%] | inhibition at 100 µM (SARS-CoV-2 3CL Protease) [%] | also measured |
| --- | --- | --- | --- |
| C[C@@H]1O[C@@H](O[C@@H]2[C@@H](O)[C@H](OCCc3ccc(O)c(O)c3)O[C@H](CO)[C@H]2OC(=O)/C=C/c2ccc(O)c(O)c2)[C@H](O)[C@H](O)[C@H]1O [Compound 1, Acteoside] | 75.8 |  | IC50 (SARS-CoV-2 3CL Protease): 0.043 µM |
| O=C(O)c1cc(O)c2c(c1)[C@@H]([C@H]1c3cc(C(=O)O)cc(O)c3C(=O)c3c(O[C@@H]4O[C@H](CO)[C@@H](O)[C@H](O)[C@H]4O)cccc31)c1cccc(O[C@@H]3O[C@H](CO)[C@@H](O)[C@H](O)[C@H]3O)c1C2=O [Compound 2, Sennoside B] |  | 78.5 |  |
| O=C(c1cc(O)cc(O)c1)c1c(O)cc(O)cc1O [Compound 3, 2,3′,4,5′,6-Pentahydroxy benzophenone] | 87.9 |  | IC50 (SARS-CoV-2 3CL Protease; [4]): 0.102 µM |
| COc1ccc(-c2cc(=O)c3c(O)cc(O)cc3o2)cc1Oc1ccc(-c2cc(=O)c3c(O)cc(O)cc3o2)cc1 [Compound 4, Ochnaflavone-4′-methyl ether] | 53 |  | % inhibition (SARS-CoV-2 3CL Protease; [5]): 53.22% |
| O=C1C[C@@H](c2ccc(O)cc2)Oc2cc(O)cc(O)c21 [Compound 5, Naringenin] |  | 97.9 | CC50 at 24 h (Cytotoxicity assay (MTT)): 179 µg/mL (≈ 657 µM); IC50 (SARS-CoV-2 3CL Protease): 0.092 µM; IC50 ([1]; Severe acute respiratory syndrome coronavirus 2, Vero C1008, 72 h, read-out: IC50 (anti-SARS-CoV-2)): 28.3 µg/mL (≈ 104 µM); selectivity index (CC50/IC50) ([1]; Vero-E6 cells): 6.3; toxicity [2]: without relevant toxicity; Cmax ([2]; read-out: serum Cmax): ~50 µM |
| O=c1cc(-c2ccc(O)cc2)oc2cc(OC3O[C@H](CO)[C@@H](O)[C@H](O)[C@H]3O)cc(O)c12 (stereo partly drawn) [Compound 6, Apigenin-7-O-β-D-glucoside] | 83.1 |  | IC50 (SARS-CoV-2 3CL Protease; [4]): 0.074 µM |
| CC(C)C(=O)NCCC1(O)c2scnc2-c2nccc3c2C1Nc1ccccc1-3 (centres unmarked) [Compound 7, Sagitol C] |  | 27 |  |
| O=C(c1ccc(O)c(O)c1)c1c(O)cc(O)cc1OC1OC(CO)C(O)C(O)C1O [Compound 8, Maclurin-6-O-β-D-glucopyranoside (Rhodanthenone)] |  | 23.2 |  |
| C[C@@H]1O[C@@H](O[C@@H]2[C@@H](O)[C@H](OCCc3ccc(O)c(O)c3)O[C@H](COC(=O)/C=C/c3ccc(O)c(O)c3)[C@H]2O)[C@H](O)[C@H](O)[C@H]1O [Compound 15, Iso-Acteoside] |  | 24.6 |  |
| O=c1c(O)c(-c2ccc(O)cc2)oc2cc(OC3OC(CO)C(O)C(O)C3O)cc(O)c12 [Compound 16, Kaempferol-7-O-β-D-glucoside] |  | 23.3 |  |
| CC1=CC(=O)C(C(C)C)=CC1=O [Compound 17, Thymoquinon] | 63 |  | % inhibition (SARS-CoV-2 3CL Protease; [5]): 63.21% |
| C/C=C1/[C@H](O[C@@H]2O[C@H](CO)[C@@H](O)[C@H](O)[C@H]2O)OC=C(C(=O)OC)[C@H]1CC(=O)OCCc1ccc(O)c(O)c1 [Compound 18, Oleuropein] |  | 26.4 |  |
